Results reported in ChEMBL document CHEMBL1201862, “PubChem BioAssay data set” (2004).
Where “and” joins values, the source holds several entries; their conditions need not be identical. Equal values may be shown once. Calls of active or inactive are those of the source.

Tests used:
Cannabinoid receptor 2 [1] = target: T1, Cannabinoid receptor 2 (Homo sapiens, UniProt P34972); assay: SAR analysis of antagonists of the Cannabinoid Receptor 2 using an Image-Based Assay - Set 3. [Related pubchem assays (depositor defined):AID2013, AID2026]; format: functional
T1 sequence (P34972 whole entry): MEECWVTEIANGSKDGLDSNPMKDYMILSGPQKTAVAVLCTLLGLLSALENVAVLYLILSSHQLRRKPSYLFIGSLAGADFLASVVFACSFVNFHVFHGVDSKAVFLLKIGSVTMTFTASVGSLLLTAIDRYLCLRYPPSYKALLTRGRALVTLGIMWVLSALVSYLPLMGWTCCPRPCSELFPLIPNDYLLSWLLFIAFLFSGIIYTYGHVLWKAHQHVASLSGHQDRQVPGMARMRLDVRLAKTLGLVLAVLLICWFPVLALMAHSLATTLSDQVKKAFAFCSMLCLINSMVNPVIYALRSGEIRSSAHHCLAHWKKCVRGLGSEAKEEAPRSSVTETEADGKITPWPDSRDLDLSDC

Streptokinase A = target: T2, Streptokinase A (Streptococcus pyogenes serotype M1, UniProt P10520); assay: S. pyogenes streptokinase expression inhibitors, potency, dose response, plasminogen activation absorbance, OD405 (AID 1914); format: functional, Streptococcus pyogenes M1 GAS;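 also: secreted streptokinase activity via plasminogen activation per viability signal from cell pellet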
T2 sequence (P10520 whole entry): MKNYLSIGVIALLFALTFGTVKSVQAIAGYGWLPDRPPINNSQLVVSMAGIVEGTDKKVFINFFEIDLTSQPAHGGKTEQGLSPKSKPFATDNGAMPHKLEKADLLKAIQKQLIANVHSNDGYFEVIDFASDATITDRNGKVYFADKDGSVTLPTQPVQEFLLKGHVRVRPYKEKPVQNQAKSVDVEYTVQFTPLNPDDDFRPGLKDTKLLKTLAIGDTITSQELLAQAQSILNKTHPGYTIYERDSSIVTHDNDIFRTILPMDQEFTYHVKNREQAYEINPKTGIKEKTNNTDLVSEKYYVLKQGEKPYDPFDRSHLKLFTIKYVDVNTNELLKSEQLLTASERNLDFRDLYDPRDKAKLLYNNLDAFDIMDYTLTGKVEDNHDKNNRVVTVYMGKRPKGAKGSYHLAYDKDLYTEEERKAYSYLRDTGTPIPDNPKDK

[2] = target: T3, G-protein coupled receptor 35 (Homo sapiens, UniProt Q9HC97); assay: SAR analysis of Agonists of the GPR35 Receptor using an Image-Based Assay - Set 4. [Related pubchem assays (depositor defined):AID2013, AID2026]; format: functional
T3 sequence (Q9HC97 whole entry): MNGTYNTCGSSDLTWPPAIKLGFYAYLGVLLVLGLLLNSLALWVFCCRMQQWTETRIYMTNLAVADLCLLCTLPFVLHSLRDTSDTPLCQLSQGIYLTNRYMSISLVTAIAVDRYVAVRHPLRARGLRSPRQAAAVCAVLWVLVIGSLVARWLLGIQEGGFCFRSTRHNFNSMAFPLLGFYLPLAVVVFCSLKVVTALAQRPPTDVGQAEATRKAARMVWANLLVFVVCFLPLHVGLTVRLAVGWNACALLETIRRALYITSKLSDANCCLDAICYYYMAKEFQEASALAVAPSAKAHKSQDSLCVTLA

[3] = target: G-protein coupled receptor 55 (Homo sapiens, UniProt Q9Y2T6); assay: SAR Analysis of Selective Antagonists of GPR55 using an Image-Based Assay - Set 4. [Related pubchem assays (depositor defined):AID2013, AID2026]; format: functional;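 also: antagonism of response to 5 µM lysophosphatidylinositol agonist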
Sequence of G-protein coupled receptor 55 (Q9Y2T6 whole entry): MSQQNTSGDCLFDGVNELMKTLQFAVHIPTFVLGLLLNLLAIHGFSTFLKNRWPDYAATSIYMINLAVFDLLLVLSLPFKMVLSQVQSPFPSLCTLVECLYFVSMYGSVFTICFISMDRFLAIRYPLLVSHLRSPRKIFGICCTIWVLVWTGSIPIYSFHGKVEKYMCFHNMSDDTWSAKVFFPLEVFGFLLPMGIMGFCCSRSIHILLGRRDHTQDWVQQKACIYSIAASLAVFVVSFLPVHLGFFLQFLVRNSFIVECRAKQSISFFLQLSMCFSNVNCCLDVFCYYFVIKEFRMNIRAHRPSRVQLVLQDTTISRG

Cannabinoid receptor 1 [4] = target: T4, Cannabinoid receptor 1 (Homo sapiens, UniProt P21554); assay: SAR analysis of antagonists of the Cannabinoid Receptor 1 using an Image-Based Assay - Set 4. [Related pubchem assays (depositor defined):AID2013, AID2026]; format: functional
T4 sequence (P21554 whole entry): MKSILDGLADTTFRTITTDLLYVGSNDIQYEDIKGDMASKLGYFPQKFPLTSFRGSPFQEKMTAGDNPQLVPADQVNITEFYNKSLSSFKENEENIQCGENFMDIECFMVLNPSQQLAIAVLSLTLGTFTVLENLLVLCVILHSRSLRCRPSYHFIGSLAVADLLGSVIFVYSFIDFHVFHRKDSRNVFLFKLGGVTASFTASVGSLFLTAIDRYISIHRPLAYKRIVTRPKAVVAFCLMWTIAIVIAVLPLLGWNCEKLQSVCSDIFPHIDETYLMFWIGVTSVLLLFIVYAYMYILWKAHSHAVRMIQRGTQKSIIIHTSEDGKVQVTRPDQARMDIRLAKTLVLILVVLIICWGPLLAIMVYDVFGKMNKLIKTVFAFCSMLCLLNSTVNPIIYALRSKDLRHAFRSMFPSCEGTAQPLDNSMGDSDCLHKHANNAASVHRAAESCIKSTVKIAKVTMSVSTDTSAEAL

[5] = target: T3, G-protein coupled receptor 35; assay: SAR analysis of Antagonists of the GPR35 Receptor using an Image-Based Assay - Set 6. [Related pubchem assays (depositor defined):AID2013, AID2026]; format: functional
Cannabinoid receptor 2 [6] = target: T1, Cannabinoid receptor 2; assay: SAR analysis of agonists of the Cannabinoid Receptor 2 using an Image-Based Assay - Set 3. [Related pubchem assays (depositor defined):AID2013, AID2026]; format: functional
Cannabinoid receptor 1 [7] = target: T4, Cannabinoid receptor 1; assay: SAR analysis of agonists of the Cannabinoid Receptor 1 using an Image-Based Assay - Set 4. [Related pubchem assays (depositor defined):AID2013, AID2026]; format: functional
Cytochrome P450 2D6 = Cytochrome P450 2D6 (Homo sapiens, UniProt P10635);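 also: CYP2D6 member of a cytochrome P450 panel assay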
Sequence of Cytochrome P450 2D6 (P10635 whole entry): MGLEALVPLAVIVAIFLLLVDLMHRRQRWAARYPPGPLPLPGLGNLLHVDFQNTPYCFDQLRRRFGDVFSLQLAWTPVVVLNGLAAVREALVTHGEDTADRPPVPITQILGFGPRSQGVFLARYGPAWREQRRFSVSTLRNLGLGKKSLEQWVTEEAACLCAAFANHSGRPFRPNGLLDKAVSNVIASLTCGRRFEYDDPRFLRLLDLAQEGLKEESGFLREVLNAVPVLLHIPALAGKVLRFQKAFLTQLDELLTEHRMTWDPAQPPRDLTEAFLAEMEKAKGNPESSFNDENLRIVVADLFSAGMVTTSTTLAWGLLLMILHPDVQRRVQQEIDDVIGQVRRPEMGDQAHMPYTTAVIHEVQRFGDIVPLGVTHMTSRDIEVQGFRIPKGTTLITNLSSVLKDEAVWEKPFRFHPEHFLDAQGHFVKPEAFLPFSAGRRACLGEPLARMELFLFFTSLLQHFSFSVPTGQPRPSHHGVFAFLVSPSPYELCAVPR

[8] = target: T5, Tyrosine-protein phosphatase non-receptor type 22 (Homo sapiens, UniProt Q9Y2R2); format: functional
T5 sequence (Q9Y2R2 whole entry): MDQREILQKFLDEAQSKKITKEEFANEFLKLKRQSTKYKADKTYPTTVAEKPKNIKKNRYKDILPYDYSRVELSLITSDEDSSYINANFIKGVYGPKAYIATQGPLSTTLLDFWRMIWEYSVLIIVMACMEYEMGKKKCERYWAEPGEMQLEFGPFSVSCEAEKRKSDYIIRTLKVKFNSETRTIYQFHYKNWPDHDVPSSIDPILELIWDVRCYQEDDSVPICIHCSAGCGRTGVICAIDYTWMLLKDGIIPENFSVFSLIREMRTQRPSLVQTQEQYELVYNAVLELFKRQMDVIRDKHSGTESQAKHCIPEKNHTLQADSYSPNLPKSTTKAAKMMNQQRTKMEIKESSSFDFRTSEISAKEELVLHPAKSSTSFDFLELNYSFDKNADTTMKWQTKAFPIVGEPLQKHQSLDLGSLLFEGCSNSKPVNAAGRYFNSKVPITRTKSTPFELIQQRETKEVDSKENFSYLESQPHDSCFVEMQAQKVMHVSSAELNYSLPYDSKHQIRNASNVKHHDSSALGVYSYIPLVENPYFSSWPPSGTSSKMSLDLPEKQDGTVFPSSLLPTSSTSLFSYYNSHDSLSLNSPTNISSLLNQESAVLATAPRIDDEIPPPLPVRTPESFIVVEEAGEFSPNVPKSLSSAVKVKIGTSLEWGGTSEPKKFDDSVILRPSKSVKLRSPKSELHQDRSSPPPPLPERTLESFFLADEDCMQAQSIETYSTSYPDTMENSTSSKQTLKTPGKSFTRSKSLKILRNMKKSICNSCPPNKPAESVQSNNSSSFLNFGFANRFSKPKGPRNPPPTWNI

[9] = target: T5, Tyrosine-protein phosphatase non-receptor type 22; format: functional; remark: listed apart in the source
[10] = target: Tyrosine-protein phosphatase non-receptor type 7 (Homo sapiens, UniProt P35236); format: functional
Sequence of Tyrosine-protein phosphatase non-receptor type 7 (P35236 whole entry): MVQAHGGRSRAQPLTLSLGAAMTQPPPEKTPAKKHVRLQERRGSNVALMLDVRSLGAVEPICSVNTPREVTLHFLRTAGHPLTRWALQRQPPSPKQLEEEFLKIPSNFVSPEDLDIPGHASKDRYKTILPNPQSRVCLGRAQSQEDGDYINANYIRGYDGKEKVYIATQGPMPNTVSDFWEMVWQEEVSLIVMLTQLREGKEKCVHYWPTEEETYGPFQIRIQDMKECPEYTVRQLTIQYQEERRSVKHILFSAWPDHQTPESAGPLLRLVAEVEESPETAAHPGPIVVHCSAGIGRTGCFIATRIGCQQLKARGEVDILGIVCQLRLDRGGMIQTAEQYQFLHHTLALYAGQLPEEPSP

[11] = target: T6, Alkaline phosphatase, tissue-nonspecific isozyme (Homo sapiens, UniProt P05186); assay: TNAP enzyme inhibition by screening hits, dose response, selectivity assay for mouse IAP inhibitor project, biochemical, human TNAP, uHTS hits (AID 488906); format: functional
T6 sequence (P05186 whole entry): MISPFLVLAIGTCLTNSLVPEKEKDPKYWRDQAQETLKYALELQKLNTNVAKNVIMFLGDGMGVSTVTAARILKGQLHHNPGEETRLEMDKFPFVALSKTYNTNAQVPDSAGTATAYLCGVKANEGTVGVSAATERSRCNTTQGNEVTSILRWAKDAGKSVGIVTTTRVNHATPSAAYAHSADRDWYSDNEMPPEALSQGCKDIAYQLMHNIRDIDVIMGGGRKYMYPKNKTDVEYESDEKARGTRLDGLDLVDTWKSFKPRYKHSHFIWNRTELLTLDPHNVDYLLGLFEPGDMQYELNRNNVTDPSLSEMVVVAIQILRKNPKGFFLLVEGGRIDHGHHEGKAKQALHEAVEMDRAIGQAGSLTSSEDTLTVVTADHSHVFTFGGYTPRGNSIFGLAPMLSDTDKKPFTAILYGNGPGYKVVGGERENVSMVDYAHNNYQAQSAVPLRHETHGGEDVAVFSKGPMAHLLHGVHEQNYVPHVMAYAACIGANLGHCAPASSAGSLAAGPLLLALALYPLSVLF

[12] = target: Intestinal-type alkaline phosphatase (Homo sapiens, UniProt P09923); assay: activation of human intestinal alkaline phosphatase – biochemical, dose response (AID 488873); format: functional
Sequence of Intestinal-type alkaline phosphatase (Homo sapiens, UniProt P09923) (P09923 whole entry): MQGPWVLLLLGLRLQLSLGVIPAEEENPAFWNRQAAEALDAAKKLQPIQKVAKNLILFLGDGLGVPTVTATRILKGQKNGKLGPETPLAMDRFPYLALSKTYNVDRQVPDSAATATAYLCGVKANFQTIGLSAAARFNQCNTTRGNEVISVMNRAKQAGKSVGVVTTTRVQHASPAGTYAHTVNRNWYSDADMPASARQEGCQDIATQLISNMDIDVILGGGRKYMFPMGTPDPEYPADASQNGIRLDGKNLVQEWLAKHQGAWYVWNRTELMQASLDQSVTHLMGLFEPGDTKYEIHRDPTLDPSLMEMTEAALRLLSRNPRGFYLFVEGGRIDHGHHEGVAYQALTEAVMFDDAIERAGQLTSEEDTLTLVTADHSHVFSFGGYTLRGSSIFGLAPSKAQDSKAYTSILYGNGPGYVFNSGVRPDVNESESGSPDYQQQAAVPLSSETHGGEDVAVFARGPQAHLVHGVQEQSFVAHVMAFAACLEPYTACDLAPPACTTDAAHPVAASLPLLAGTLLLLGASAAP

[13] = target: T7, Intestinal-type alkaline phosphatase (Mus musculus, UniProt P24822); assay: PubChem AID 488785; format: functional
T7 sequence (P24822 whole entry): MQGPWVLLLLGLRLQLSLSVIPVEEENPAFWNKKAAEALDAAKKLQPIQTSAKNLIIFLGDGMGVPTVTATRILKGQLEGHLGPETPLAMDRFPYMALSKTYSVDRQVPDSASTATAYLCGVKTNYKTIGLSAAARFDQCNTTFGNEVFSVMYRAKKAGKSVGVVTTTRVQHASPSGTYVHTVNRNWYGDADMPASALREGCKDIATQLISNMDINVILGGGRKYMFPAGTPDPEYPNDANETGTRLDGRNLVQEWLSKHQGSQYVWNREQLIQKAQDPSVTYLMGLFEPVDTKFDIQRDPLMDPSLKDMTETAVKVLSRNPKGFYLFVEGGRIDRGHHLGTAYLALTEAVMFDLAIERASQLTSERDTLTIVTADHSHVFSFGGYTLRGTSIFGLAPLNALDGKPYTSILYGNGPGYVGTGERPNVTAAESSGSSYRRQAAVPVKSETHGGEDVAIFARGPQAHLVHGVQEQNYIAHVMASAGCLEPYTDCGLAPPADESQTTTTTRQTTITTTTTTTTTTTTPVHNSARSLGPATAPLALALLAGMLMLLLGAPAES

[14] = target: T6, Alkaline phosphatase, tissue-nonspecific isozyme; assay: TNAP enzyme activators, dose response, selectivity assay for mouse IAP activator project, biochemical, TNAP isozyme, mouse IAP uHTS hits (AID 488880); format: functional
[15] = target: T8, Heat shock factor protein 1 (Mus musculus, UniProt P38532); assay: inhibition of MG132-induced HSE-luciferase signal, confirmation, cell-based, NIH3T3, luminescence, dose retest (AID 2382); format: functional;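 also: NIH3T3 fibroblasts with HSF1-driven luciferase reporter stressed by proteasome inhibitor MG132; luminescence from HSF1-driven luciferase expression after 8 hours of MG132 stress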
T8 sequence (P38532 whole entry): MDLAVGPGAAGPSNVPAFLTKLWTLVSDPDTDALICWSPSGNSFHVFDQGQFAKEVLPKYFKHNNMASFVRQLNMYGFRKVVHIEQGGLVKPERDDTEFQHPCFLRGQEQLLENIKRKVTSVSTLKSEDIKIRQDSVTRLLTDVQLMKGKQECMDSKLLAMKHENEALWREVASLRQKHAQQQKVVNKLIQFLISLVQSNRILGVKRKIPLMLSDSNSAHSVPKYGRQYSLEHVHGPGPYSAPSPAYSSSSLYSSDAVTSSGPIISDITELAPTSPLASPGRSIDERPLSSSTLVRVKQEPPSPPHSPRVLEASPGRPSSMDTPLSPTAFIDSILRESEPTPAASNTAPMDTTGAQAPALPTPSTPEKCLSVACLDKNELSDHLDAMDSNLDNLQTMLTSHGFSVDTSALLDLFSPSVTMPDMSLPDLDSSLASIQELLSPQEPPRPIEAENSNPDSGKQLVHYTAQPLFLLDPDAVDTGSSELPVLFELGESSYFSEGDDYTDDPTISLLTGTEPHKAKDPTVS

[16] = target: T7, Intestinal-type alkaline phosphatase; assay: mouse intestinal alkaline phosphatase activators, dose response, biochemical, luminescence, uHTS hits (AID 488783); format: functional
[17] = target: T9, Rac GTPase-activating protein 1 (Homo sapiens, UniProt Q9H0H5); assay: MgcRacGAP GTPase-activating activity inhibitors, confirmation, biochemical, ADP Hunter fluorescence, primary and confirmatory (AID 624330); format: functional
T9 sequence (Q9H0H5 whole entry): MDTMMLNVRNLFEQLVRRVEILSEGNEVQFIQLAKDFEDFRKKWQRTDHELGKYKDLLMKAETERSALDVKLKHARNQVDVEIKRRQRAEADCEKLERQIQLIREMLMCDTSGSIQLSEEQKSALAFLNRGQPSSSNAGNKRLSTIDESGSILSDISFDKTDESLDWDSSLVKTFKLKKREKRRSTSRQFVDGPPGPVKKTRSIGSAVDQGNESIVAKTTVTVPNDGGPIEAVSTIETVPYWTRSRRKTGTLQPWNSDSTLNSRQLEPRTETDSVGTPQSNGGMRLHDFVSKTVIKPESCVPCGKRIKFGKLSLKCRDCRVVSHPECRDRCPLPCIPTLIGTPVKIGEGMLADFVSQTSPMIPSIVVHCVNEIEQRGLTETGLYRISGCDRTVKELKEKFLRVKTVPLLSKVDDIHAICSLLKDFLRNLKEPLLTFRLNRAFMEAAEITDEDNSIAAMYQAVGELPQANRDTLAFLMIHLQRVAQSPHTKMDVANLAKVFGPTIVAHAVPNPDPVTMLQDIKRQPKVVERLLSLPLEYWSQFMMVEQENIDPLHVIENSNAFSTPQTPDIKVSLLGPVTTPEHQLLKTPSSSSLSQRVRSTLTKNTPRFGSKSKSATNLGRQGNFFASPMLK

[18] = target: T10, Small ubiquitin-related modifier 1 (Homo sapiens, UniProt P63165); assay: inhibitors of SUMO1 partner interactions, dose response, biochemical, FRET (AID 624383); format: functional; details: read-out: IC50_Mean
T10 sequence (P63165 whole entry): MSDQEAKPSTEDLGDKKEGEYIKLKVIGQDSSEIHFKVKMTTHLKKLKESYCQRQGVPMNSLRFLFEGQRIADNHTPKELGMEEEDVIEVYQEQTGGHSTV

[19] = target: T11, Probable nicotinate-nucleotide adenylyltransferase (Staphylococcus aureus (strain N315), UniProt P65502); format: functional, Staphylococcus aureus subsp. aureus N315;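 as to IC50 Mean: confirmatory dose-response retesting of NadD inhibitor hits first found in an ultra-high-throughput screen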
T11 sequence (P65502 whole entry): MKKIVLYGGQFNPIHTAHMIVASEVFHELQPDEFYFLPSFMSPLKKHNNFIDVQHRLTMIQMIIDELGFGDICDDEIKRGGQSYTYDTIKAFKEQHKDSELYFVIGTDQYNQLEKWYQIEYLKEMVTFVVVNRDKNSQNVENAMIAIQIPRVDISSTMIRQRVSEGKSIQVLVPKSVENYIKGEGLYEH

[20] = target: Induced myeloid leukemia cell differentiation protein Mcl-1 (Homo sapiens, UniProt Q07820); assay: MCL1-BIM BH3 interaction inhibitors, dose response, biochemical, fluorescence polarization, BIM-BH3 peptide, 1536-well (AID 2217)
Sequence of Induced myeloid leukemia cell differentiation protein Mcl-1 (Q07820 whole entry): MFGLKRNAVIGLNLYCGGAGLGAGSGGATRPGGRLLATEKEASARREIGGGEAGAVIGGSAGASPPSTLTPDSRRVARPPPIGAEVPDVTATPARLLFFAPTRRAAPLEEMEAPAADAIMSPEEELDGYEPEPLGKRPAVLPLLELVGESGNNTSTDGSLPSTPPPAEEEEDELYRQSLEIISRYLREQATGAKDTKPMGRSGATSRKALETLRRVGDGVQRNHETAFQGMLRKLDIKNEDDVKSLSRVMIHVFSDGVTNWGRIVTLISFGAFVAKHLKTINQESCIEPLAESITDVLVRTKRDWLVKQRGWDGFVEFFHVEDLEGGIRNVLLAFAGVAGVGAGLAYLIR

[21] = target: T10, Small ubiquitin-related modifier 1; assay: inhibitors of SUMO1 peptide binding, dose response, biochemical, fluorescence polarization, uHTS hits (AID 624382); format: functional; details: read-out: IC50_Mean
[22] = target: Peroxisome proliferator-activated receptor gamma (Homo sapiens, UniProt P37231); assay: PPARg partial agonists, dose response, cell-based, luminescence, assay provider (AID 504447); format: functional
Sequence of Peroxisome proliferator-activated receptor gamma (P37231 whole entry): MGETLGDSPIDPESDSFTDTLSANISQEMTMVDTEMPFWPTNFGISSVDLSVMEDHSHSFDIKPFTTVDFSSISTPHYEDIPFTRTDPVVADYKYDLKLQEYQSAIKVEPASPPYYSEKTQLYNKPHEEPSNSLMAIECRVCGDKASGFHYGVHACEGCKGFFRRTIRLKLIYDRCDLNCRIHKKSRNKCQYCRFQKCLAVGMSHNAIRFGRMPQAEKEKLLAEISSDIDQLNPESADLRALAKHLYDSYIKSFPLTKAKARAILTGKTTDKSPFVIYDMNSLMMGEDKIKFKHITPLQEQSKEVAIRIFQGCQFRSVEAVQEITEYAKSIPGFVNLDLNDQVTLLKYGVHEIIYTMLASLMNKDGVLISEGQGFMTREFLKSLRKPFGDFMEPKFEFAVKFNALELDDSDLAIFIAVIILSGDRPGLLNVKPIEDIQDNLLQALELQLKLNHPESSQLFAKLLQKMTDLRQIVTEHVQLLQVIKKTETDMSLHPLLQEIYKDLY

Bcl-2-like protein 1 = Bcl-2-like protein 1 (Homo sapiens, UniProt Q07817); assay: BCL-XL inhibitors, dose response, selectivity assay for MCL1 inhibitor project, biochemical, fluorescence polarization, 1536-well (AID 2218)
Sequence of Bcl-2-like protein 1 (Q07817 whole entry): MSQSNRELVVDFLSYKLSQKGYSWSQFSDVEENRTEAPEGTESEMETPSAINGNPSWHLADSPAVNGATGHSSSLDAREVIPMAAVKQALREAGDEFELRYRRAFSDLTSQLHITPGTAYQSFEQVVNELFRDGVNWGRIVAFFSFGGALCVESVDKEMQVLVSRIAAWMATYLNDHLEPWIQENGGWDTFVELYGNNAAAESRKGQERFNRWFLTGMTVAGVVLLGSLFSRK

[23] = target: T11, Probable nicotinate-nucleotide adenylyltransferase; format: functional, Staphylococcus aureus subsp. aureus N315; details: read-out: IC50_Mean
[24] = HeLa cell cytotoxicity, dose response, cytotoxicity control for MgcRacGAP inhibitor project (AID 624300); format: functional

Compound: COc1ccc(-c2n[nH]c(C)c2-c2ccc(Cl)cc2)c(O)c1
- IC50 (Cannabinoid receptor 2 [1]): 5.22 µM (active) and 4.83 µM (active)
- EC50 (Streptokinase A): 9.86 µM (active)
- EC50 [2]: > 32 µM (inactive)
- IC50 [3]: 10.9 µM (inactive) and 13.4 µM (inactive)
- IC50 (Cannabinoid receptor 1 [4]): 548 nM (active) and 607 nM (active)
- IC50 [5]: > 32 µM (inactive)
- EC50 (Cannabinoid receptor 2 [6]): 4.81 µM (active) and 5.4 µM (active)
- EC50 (Cannabinoid receptor 1 [7]): > 32 µM (inactive)
- AC50 (Cytochrome P450 2D6): 28.2 µM (inconclusive)

Compound: C=CCN(CC=C)C(=S)NC(=O)/C=C/c1ccc(C)cc1
- IC50 [8]: > 79.4 µM (inactive)
- IC50 [9]: > 79.4 µM (inactive)
- IC50 [10]: > 79.4 µM (inactive)

Compound: COc1ccc(OC)c(NC(=O)CCNS(=O)(=O)c2ccc3[nH]c(=O)oc3c2)c1
- IC50 [11]: > 100 µM (inactive)
- EC50 [12]: > 100 µM (inactive)
- IC50 [13]: 2.49 µM (active)

Compound: COc1cc(OC)c(NC(=O)CN(C)S(=O)(=O)c2ccc3nc(O)oc3c2)cc1Cl
- EC50 [14]: 70.7 µM (active)
- EC50 [12]: 68.4 µM (active)
- EC50 [15]: > 195 µM (not active)
- EC50 [16]: 51.5 µM (active)

Compound: O=C(C1=C(O)C(=O)N(c2nc3ccc(Cl)cc3s2)C1c1ccco1)c1ccco1 (stereo not drawn)
- IC50 [17]: 118 µM (active)
- IC50 [18]: 8.8 µM (active)
- IC50 [19]: 13.8 µM (active)
- IC50 [20]: 28.8 µM (not active)
- IC50 [21]: > 66.6 µM (inactive)
- EC50 [22]: 700 nM (active)
- IC50 (Bcl-2-like protein 1): > 109 µM (not active)
- IC50 [23]: 56.8 µM (active)
- CC50 [24]: 100 µM (active)
